From article PMC12892976, “Alkylation-based optimization of antifungal FPPS inhibitors yields a potent, broad-spectrum lipophilic zoledronate derivative” (mBio, 2025)
≈ marks a conversion by molar mass, not a printed value. Where two headings read alike, the source gives them in different places.

How the values were obtained:
[1] = test system: Saccharomyces cerevisiae; assay: MIC/MFC broth microdilution (CLSI); assay type: cell-based; conditions: Saccharomyces cerevisiae S288c
Protocol: (§1) Antifungal susceptibility was determined by broth microdilution according to the CLSI guidelines described in M27-Ed4 ([16]). […] MFC was determined by back-plating drug-treated cultures from MIC broths onto SDA plates. The MFC was defined as the lowest concentration from which no colonies could be cultured.

[2] = test system: Candida albicans; assay: MIC/MFC broth microdilution (CLSI); assay type: cell-based; conditions: Candida albicans SC5314
Protocol: as §1

[3] = test system: Cryptococcus deuterogattii; assay: checkerboard drug interaction (FICI, MICc);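 as to all read-outs here: simplified diagonal checkerboard screen pairing antifungal drugs with FPPS inhibitors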; assay type: cell-based; conditions: C. deuterogattii; for INH FD (MIC-MICc fold decrease): fold decrease of inhibitor MIC
Protocol: (§2) Drug interactions between antifungals and FPPS inhibitors were investigated using a simplified checkerboard diagonal screening method ([45]). […] FICIs were determined according to the Loewe additivity model ([17]).

[4] = test system: Cryptococcus neoformans; assay: checkerboard drug interaction (FICI, MICc);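 as to all read-outs here: antifungal plus FPPS inhibitor pairs tested against Cryptococcus neoformans by simplified diagonal checkerboard screening, FICI computed under the Loewe additivity model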; assay type: cell-based; conditions: C. neoformans; for INH FD (MIC-MICc fold decrease): fold decrease of inhibitor MIC
Protocol: as §2

[5] = test system: Saccharomyces cerevisiae; assay: checkerboard drug interaction (FICI, MICc); assay type: cell-based; set-up: INH MICc / INH MICc (ITR:INH) / INH MICc (KET:INH) / INH MICc (FLC:INH): unit not given beside the values;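 also: simplified diagonal checkerboard screen pairing antifungals with FPPS inhibitors, FICI calculated under the Loewe additivity model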
[6] = test system: Candida glabrata; assay: checkerboard drug interaction (FICI, MICc);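 as to all read-outs here: simplified diagonal checkerboard screen pairing antifungals with FPPS inhibitors, FICI calculated under the Loewe additivity model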; assay type: cell-based; conditions: C. glabrata; for INH FD (MIC-MICc fold decrease): fold decrease of inhibitor MIC
Protocol: as §2

[7] = test system: Candida albicans; assay: checkerboard drug interaction (FICI, MICc);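 as to all read-outs here: antifungal plus FPPS inhibitor combinations on Candida albicans tested by a simplified diagonal checkerboard screen, with FICI calculated under the Loewe additivity model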; assay type: cell-based; conditions: C. albicans; for INH FD (MIC-MICc fold decrease): fold decrease of inhibitor MIC
Protocol: as §2

[8] = test system: Aspergillus flavus; assay: checkerboard drug interaction (FICI, MICc);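 also: simplified diagonal checkerboard screen pairing azole antifungals with FPPS inhibitors, FICI calculated under the Loewe additivity model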; assay type: cell-based; set-up: INH MICc (KET:INH) / INH MICc (FLC:INH): unit not given beside the values; conditions: A. flavus
[9] = test system: Aspergillus fumigatus; assay: checkerboard drug interaction (FICI, MICc); assay type: cell-based;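 also: simplified diagonal checkerboard screen pairing antifungals with FPPS inhibitors against Aspergillus fumigatus, with FICI calculated under the Loewe additivity model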
Protocol: as §2

[10] = test system: Trichophyton rubrum; assay: checkerboard drug interaction (FICI, MICc);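 also: simplified diagonal checkerboard screen pairing azole antifungals with FPPS inhibitors, FICI calculated under the Loewe additivity model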; assay type: cell-based; conditions: T. rubrum
Protocol: as §2

[11] = test system: HEK-293T cells; assay: MTT reduction cytotoxicity assay; assay type: cell-based; conditions: Homo sapiens, HEK-293T, 72 h, MTT, 72 h
[12] = test system: eight fungal species; assay: MIC/MFC summary across the eight fungal species of Table 1; assay type: cell-based
Protocol: The antifungal activity of these compounds was evaluated according to CLSI guidelines ([16]).

[13] = test system: eight fungal species; assay: checkerboard interaction with azoles, summary across the eight species; assay type: cell-based; conditions: geometric mean MIC in combination with azoles
From the text: Synergy between lipophilic FPPS inhibitors and azole antifungals was investigated by determining the fractional inhibitory concentration index (FICI) (Fig. 2; Table S1 Fig. S1) ([17]). […]. Derivatives PLA9 and 11, and PDA9, 11, and 12 antagonized azoles in C. albicans, C. neoformans, and C. deuterogattii, yet were largely synergistic in C. glabrata and S. cerevisiae. […].

[14] = test system: Cryptococcus deuterogattii; assay: MIC/MFC broth microdilution (CLSI); conditions: Cryptococcus deuterogattii;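 also: broth microdilution per CLSI M27-Ed4. MFC is the lowest concentration yielding no colonies when MIC broths are subcultured onto SDA plates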
Protocol: as §1

[15] = test system: Cryptococcus neoformans; assay: MIC/MFC broth microdilution (CLSI); conditions: Cryptococcus neoformans;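 also: susceptibility testing followed the CLSI M27-Ed4 broth microdilution document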
Protocol: as §1

[16] = test system: Candida glabrata; assay: MIC/MFC broth microdilution (CLSI); conditions: Nakaseomyces glabratus, CBS138;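 also: broth microdilution following CLSI M27-Ed4, MFC taken as the lowest drug level yielding no growth once MIC wells were subcultured on SDA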
Protocol: as §1

[17] = test system: Aspergillus flavus; assay: MIC/MFC broth microdilution (CLSI); conditions: ATCC204304
Protocol: as §1

[18] = test system: Aspergillus fumigatus; assay: MIC/MFC broth microdilution (CLSI); conditions: ATCC204305
Protocol: as §1

[19] = test system: Trichophyton rubrum; assay: MIC/MFC broth microdilution (CLSI); conditions: Trichophyton rubrum
Protocol: as §1

[20] = FLC:INH combination, MIC of the inhibitor in combination with FLC
[21] = FLC:INH combination, fold decrease of FLC MIC
[22] = ITR:INH combination, MIC of the inhibitor in combination with ITR
[23] = ITR:INH combination, fold decrease of ITR MIC
[24] = KET:INH combination, MIC of the inhibitor in combination with KET
[25] = KET:INH combination, fold decrease of KET MIC
[26] = Fractional Inhibitory Concentration Index, fluconazole + inhibitor
[27] = Fractional Inhibitory Concentration Index, itraconazole + inhibitor
[28] = Fractional Inhibitory Concentration Index, ketoconazole + inhibitor
[29] = MIC of the inhibitor in combination with fluconazole
[30] = MIC of the inhibitor in combination with itraconazole
[31] = MIC of the inhibitor in combination with ketoconazole
[32] = MIC-MICc fold decrease of fluconazole, negative = increase
[33] = MIC-MICc fold decrease of itraconazole, negative = increase
[34] = MIC-MICc fold decrease of ketoconazole, negative = increase
[35] = MIC-MICc fold decrease of the inhibitor, with fluconazole
[36] = MIC-MICc fold decrease of the inhibitor, with itraconazole
[37] = MIC-MICc fold decrease of the inhibitor, with ketoconazole

SMILES: CCCCCCCCCCCCN1CCC[C@H]1C(=O)N[C@H](CC(=O)OC)C(=O)OC [dmPDA12]
- MFC [1]: > 128 µg/mL
- MIC [1]: 64 µg/mL (≈ 150 µM)
- MFC [2]: > 128 µg/mL
- MIC [2]: > 128 µg/mL
- FICI ([3]; FLC:INH combination): 2
- INH MICc [3, 20]: 64
- FLC FD (MIC-MICc fold decrease) [3, 21]: 1
- INH FD (MIC-MICc fold decrease) ([3]; FLC:INH combination): 1
- FICI ([3]; ITR:INH combination): 0.38
- INH MICc [3, 22]: 8
- ITR FD (MIC-MICc fold decrease) [3, 23]: 4
- INH FD (MIC-MICc fold decrease) ([3]; ITR:INH combination): 8
- FICI ([3]; KET:INH combination): 0.16
- INH MICc [3, 24]: 8
- KET FD (MIC-MICc fold decrease) [3, 25]: 32
- INH FD (MIC-MICc fold decrease) ([3]; KET:INH combination): 8
- FICI ([4]; FLC:INH combination): 1.25
- INH MICc [4, 20]: 8
- FLC FD (MIC-MICc fold decrease) [4, 21]: 4
- INH FD (MIC-MICc fold decrease) ([4]; FLC:INH combination): 1
- FICI ([4]; ITR:INH combination): 1.25
- INH MICc [4, 22]: 8
- ITR FD (MIC-MICc fold decrease) [4, 23]: 4
- INH FD (MIC-MICc fold decrease) ([4]; ITR:INH combination): 1
- FICI ([4]; KET:INH combination): 1.25
- INH MICc [4, 24]: 8
- KET FD (MIC-MICc fold decrease) [4, 25]: 4
- INH FD (MIC-MICc fold decrease) ([4]; KET:INH combination): 1
- FICI (FLC:INH) [5, 26]: 0.75
- FICI (ITR:INH) [5, 27]: 1.06
- FICI (KET:INH) [5, 28]: 0.56
- INH MICc (FLC:INH) [5, 29]: 32
- INH MICc (ITR:INH) [5, 30]: 4
- INH MICc (KET:INH) [5, 31]: 32
- FLC FD (FLC:INH) [5, 32]: 4
- ITR FD (ITR:INH) [5, 33]: 1
- KET FD (KET:INH) [5, 34]: 16
- INH FD (FLC:INH) [5, 35]: 2
- INH FD (ITR:INH) [5, 36]: 16
- INH FD (KET:INH) [5, 37]: 2
- FICI ([6]; FLC:INH combination): 2.5
- INH MICc [6, 20]: 8
- FLC FD (MIC-MICc fold decrease) [6, 21]: 2
- INH FD (MIC-MICc fold decrease) ([6]; FLC:INH combination): 1
- FICI ([6]; ITR:INH combination): 1.5
- INH MICc [6, 22]: 4
- ITR FD (MIC-MICc fold decrease) [6, 23]: 2
- INH FD (MIC-MICc fold decrease) ([6]; ITR:INH combination): 2
- FICI ([6]; KET:INH combination): 0.38
- INH MICc [6, 24]: 1
- KET FD (MIC-MICc fold decrease) [6, 25]: 8
- INH FD (MIC-MICc fold decrease) ([6]; KET:INH combination): 8
- FICI ([7]; FLC:INH combination): 1.06
- INH MICc [7, 20]: 8
- FLC FD (MIC-MICc fold decrease) [7, 21]: 1
- INH FD (MIC-MICc fold decrease) ([7]; FLC:INH combination): 16
- FICI ([7]; ITR:INH combination): 0.53
- INH MICc [7, 22]: 4
- ITR FD (MIC-MICc fold decrease) [7, 23]: 2
- INH FD (MIC-MICc fold decrease) ([7]; ITR:INH combination): 32
- FICI ([7]; KET:INH combination): 0.53
- INH MICc [7, 24]: 4
- KET FD (MIC-MICc fold decrease) [7, 25]: 2
- INH FD (MIC-MICc fold decrease) ([7]; KET:INH combination): 32
- FICI (FLC:INH) [8, 26]: 1.5
- FICI (ITR:INH) [8, 27]: 0.28
- FICI (KET:INH) [8, 28]: 0.27
- INH MICc (FLC:INH) [8, 29]: 128
- INH MICc (ITR:INH) [8, 30]: 8
- INH MICc (KET:INH) [8, 31]: 4
- FLC FD (FLC:INH) [8, 32]: 1
- ITR FD (ITR:INH) [8, 33]: 4
- KET FD (KET:INH) [8, 34]: 4
- INH FD (FLC:INH) [8, 35]: 2
- INH FD (ITR:INH) [8, 36]: 32
- INH FD (KET:INH) [8, 37]: 64
- FICI (FLC:INH) [9, 26]: 1.5
- FICI (ITR:INH) [9, 27]: 0.26
- FICI (KET:INH) [9, 28]: 2
- INH MICc (FLC:INH) [9, 29]: 128
- INH MICc (ITR:INH) [9, 30]: 1
- INH MICc (KET:INH) [9, 31]: 128
- FLC FD (FLC:INH) [9, 32]: 2
- ITR FD (ITR:INH) [9, 33]: 4
- KET FD (KET:INH) [9, 34]: 1
- INH FD (FLC:INH) [9, 35]: 1
- INH FD (ITR:INH) [9, 36]: 128
- INH FD (KET:INH) [9, 37]: 1
- FICI (FLC:INH) [10, 26]: ≥4
- FICI (ITR:INH) [10, 27]: ≥4
- FICI (KET:INH) [10, 28]: ≥4
- INH MICc (FLC:INH) [10, 29]: 32
- INH MICc (ITR:INH) [10, 30]: 32
- INH MICc (KET:INH) [10, 31]: 32
- FLC FD (FLC:INH) [10, 32]: -2
- ITR FD (ITR:INH) [10, 33]: 8
- KET FD (KET:INH) [10, 34]: 4
- INH FD (FLC:INH) [10, 35]: -4
- INH FD (ITR:INH) [10, 36]: -4
- INH FD (KET:INH) [10, 37]: -4
- IC50 ([11]; HEK-293T cells, read-out: IC50): 0.161 µg/mL (≈ 0.377 µM)
- IC50 ([11]; read-out: HEK IC50): 0.161 µg/mL (≈ 0.377 µM)
- MFC ([12]; across eight species, read-out: Geometric mean MFC): 140 µg/mL (≈ 327 µM)
- MIC ([12]; geometric mean across eight species, read-out: GM fungal MIC): 49.4 µg/mL (≈ 116 µM)
- MIC ([12]; read-out: Geometric mean MIC): 49.4 µg/mL (≈ 116 µM)
- GM fungal MICc [13]: 12
- MFC [14]: 32 µg/mL (≈ 75 µM)
- MIC [14]: 8 µg/mL (≈ 18.8 µM)
- MFC [15]: 32 µg/mL (≈ 75 µM)
- MIC [15]: 8 µg/mL (≈ 18.8 µM)
- MFC [16]: 128 µg/mL (≈ 300 µM)
- MIC [16]: 128 µg/mL (≈ 300 µM)
- MFC [17]: > 128 µg/mL
- MIC [17]: > 128 µg/mL
- MFC [18]: > 128 µg/mL
- MIC [18]: 128 µg/mL (≈ 300 µM)
- MFC [19]: > 128 µg/mL
- MIC [19]: 8 µg/mL (≈ 18.8 µM)
